Measurements as given in patent US20160194274A1, “PHENANTHRENE DERIVATIVES FOR USE AS MEDICAMENTS” (VALENTIA BIOPHARMA, priority 2012, published 2016).

Experiments:
CAG FAM-RNA probe = experiment: Gel retardation assay with FAM-CAG probe (SCA3); assay type: binding
Experimental: (§1) FIG. 9. VLT002 binding assessment in additional toxic repeats linked to disease through hairpin formation.
(§2) Fluorescence Electrophoretic Mobility Shift Assay to test RNA-compound binding. Briefly, an aliquot of carboxyfluorescein (FAM)-CUG10 RNA (DM1, HDL2, SCA8; see FIG. 6) was heated at 70° C. for 5 min and diluted to 300 nM. The binding reaction with compounds was then carried out as described in (Garcia-Lopez A et al. Proc. Natl. Acad. Sci. USA. 108(29):11866-71 (2011)). The reaction mix was loaded onto 8% polyacrylamide nondenaturing gels, and electrophoresis was conducted at 4° C. in TB 1× for approximately 30 min at 240V, followed by fluorescence visualization. Quantification of the free RNA band intensity was carried out using the ImageJ software. A non-linear regression analysis was used to calculate EC50, based on a total of three experimental replicates. Same approach was developed with (FAM)-CCUG8 (DM2), CAG10 (SCA3), CGG10 (FXTAS), GGGGCC5 (ALS/FSD), UGGAA6 (SCA31) probes (see FIG. 9).

GGGGCC FAM-RNA probe = experiment: Gel retardation assay with FAM-GGGGCC probe (FTD/ALS); assay type: binding
Experimental: as §1, §2

cTNT exon 5 splicing = experiment: RT-PCR of cTNT splicing event in human myoblasts; assay type: cell-based
Experimental: FIG. 5. Recovering of DM1 aberrant cTNT splicing event. […] Upper section, right: Recovering was significant at 25 μM.
Additional assays involved: • Reverse Transcription-PCR (RT-PCR) to detect levels of normal/aberrant splicing events in specific genes. This approach was performed in human cells from patients (see FIG. 5) or from DM1 mouse (see FIG. 8 up) (HSA^LR, Mankodi A et al., Science, 289:1769-1773 (2000)) tissues (skeletal muscle), from which total RNA was extracted from ˜0.5-1.5×10^5 cells using the Zygem Tissue Plus kit. Serca 1, Cypher or cTNNT genes reverse transcription were performed and quantification of normal/aberrant spliced band forms was obtained (ImageJ software) after running PCR products in 2% agarose gels. As shown in FIGS. 5 and 8 compounds of the invention are able to recover disease phenotypes. • Drosophila Muscle Histology, where five-day old Drosophila thoraces were embedded in Epon for transversal, semi-thin sectioning. Muscle area was quantified (see FIG. 3) by binarizing images (equal dimensions) and quantifying pixels (%) within muscle tissue with ImageJ software. […] A minimum of 8 flies were analyzed in each case.

Serca1 exon 22 splicing = experiment: Semi-quantitative RT-PCR of Serca1 splicing in HSA LR mouse skeletal muscle; assay type: in vivo; settings: three days a/i
Experimental: (§3) FIG. 8. Recovering of disease phenotypes (molecular, histological and functional) in in vivo DM1 mice (HSA^LR). Upper section: VLT002 and VLT025 suppressed splicing defects in DM1 mouse skeletal muscles. VLT002 (10 μg) and VLT025 (100 μg) were intramuscular injected in the right tibialis anterior (TA) and left quadriceps (Q), respectively, of HSA^LR mice that expressed 300 CTG repeats. […] All graphs show the mean and SEM from VLT002 and VLT025-responsive animals. Middle section: Immunofluorescent detection of trans-membrane Clcn1 protein (cell outlines in gray) in quadriceps sections of no-DM1 mouse (control) and HSA^LR mice without treatment (10150.5 QD-DMSO treated) and after VLT025 treatment (10150.5 QI).
Additional assays involved: • Reverse Transcription-PCR (RT-PCR) to detect levels of normal/aberrant splicing events in specific genes. […] Serca 1, Cypher or cTNNT genes reverse transcription were performed and quantification of normal/aberrant spliced band forms was obtained (ImageJ software) after running PCR products in 2% agarose gels. […] Muscle area was quantified (see FIG. 3) by binarizing images (equal dimensions) and quantifying pixels (%) within muscle tissue with ImageJ software. […] A minimum of 8 flies were analyzed in each case.

CGG FAM-RNA probe = experiment: Gel retardation assay with FAM-CGG probe (FXTAS); assay type: binding
Experimental: as §1, §2

FAM-CUU probe = experiment: Gel retardation assay with FAM-CUU probe (negative control); assay type: binding
UGGAA FAM-RNA probe = experiment: Gel retardation assay with FAM-UGGAA probe (SCA31); assay type: binding
Experimental: as §1, §2

CCUG FAM-RNA probe = experiment: Gel retardation assay with FAM-CCUG probe (DM2); assay type: binding
Experimental: as §1, §2

Clcn1 protein = experiment: Immunofluorescent detection of Clcn1 protein in HSA LR mouse quadriceps; assay type: in vivo; settings: 100 μg
Experimental: as §3
Also, an immunohistochemistry approach was used to measure ClC-1 protein levels (see FIG. 8 middle) in mouse tissues (skeletal muscle). Briefly, frozen sections of tibialis anterior & quadriceps muscle were prepared for routine immunostaining by using antibody against the ClC-1 protein (Alpha Diagnostic, San Antonio, Tex.). Primary antibody concentration used was 1:50 for ClC-1. Secondary antibody was goat anti-rabbit Alexa Fluor 488 and 546 (Invitrogen) at 1:400. Stacks of Z plane images were processed by using a blind point spread function. […]

CN(C)CCc1cc2c(c3c1ccc1ccccc13)OCO2 [VLT002, Stephenanthrine]
binding to CAG (SCA3) probe (CAG FAM-RNA probe): caused retention of the complex in the well | binding to GGGGCC (FTD/ALS) probe (GGGGCC FAM-RNA probe): caused retention of the complex in the well | recovering of normal cTNT splicing (ex5 exclusion) (cTNT exon 5 splicing; DM1 myoblasts, 25 μM): partial recovering | expression of housekeeping gene (GAPDH) (cTNT exon 5 splicing; human myoblasts): No expression changes | levels of cTNT exon 5 exclusion in no DM1 cells (cTNT exon 5 splicing; no DM1 human myoblasts, dose-response): no changes | splicing defects (exon 22) of Serca1 (Serca1 exon 22 splicing; 10 μg intramuscular, right tibialis anterior): partially reversed splicing defects | binding to CGG (FXTAS) probe (CGG FAM-RNA probe): caused retention of the complex in the well | binding to FAM-CUU probe (FAM-CUU probe): did not bind | binding to UGGAA (SCA31) probe (UGGAA FAM-RNA probe): caused retention of the complex in the well | binding to CCUG (DM2) probe (CCUG FAM-RNA probe): caused retention of the complex in the well

C[N+](C)(C)CCc1cc2c(c3c1ccc1ccccc13)OCO2 [VLT025]
Clcn1 fluorescent signal vs DMSO-treated contra-lateral limb (Clcn1 protein): significantly stronger | splicing defects (exon 22) of Serca1 (Serca1 exon 22 splicing; 100 μg intramuscular, left quadriceps): partially reversed splicing defects
